{"source": "patent US9802929B2", "about": "“Benzo five-membered nitrogen heterocyclic piperidine or piperazine derivatives and preparation methods and pharmaceutical compositions thereof” (Shenyang Haiwang Biotechnology Co., Ltd., priority 2012, dated 2017)", "key": {"[1]": {"system": "In-Vitro Vascular Smooth Muscle of Rabbits", "test": "Relaxant effect on in vitro rabbit vascular smooth muscle contraction induced by hyperkalemia solution", "settings": "for relaxant effect against hyperkalemia solution contraction (in words): rabbit vascular smooth muscle; for EC50: Oryctolagus cuniculus"}, "[2]": {"system": "Ca^2+ channel", "test": "Antagonism of CaCl2 cumulative contraction of rabbit aorta, pA2", "settings": "CaCl2 cumulative contraction after Ca-free hyperkalemia depolarization", "from_the_text": "Calcium-free K—H solution: Remove CaCl2 from K—H solution, add an equal number of moles of KCl, and add EDTA^−2Na^+ 0.1 mmol/L, while the other components remain unchanged.\nCalcium-free hyperkalemia solution: Remove CaCl2 from hyperkalemia solution, add an equal number of moles of KCl, and add EDTA^−2Na^+ 0.1 mmol/L, while the other components remain unchanged.\n(§1) Cut the chest open quickly after stunning, strip out the descending aorta, then after removing the surrounding connective tissue and adipose tissue (if performed serotonin receptor antagonist experiments, endothelial cells should be removed using a smooth stainless steel bars), cut the vessels into 3-5 mm vascular ring, then pass the steel hook through the blood vessel ring, with one end is fixed to the vent hook and the other end connected to the tension transducer, then place the specimens into bath tube containing 20 mL of nutrient solution, and record tension change by tension transducer. Maintain tube temperature at 37±0.5° C., and pass bubbles (95% O2+5% CO2) into the solution as a speed of 1-2 bubbles/minute. Place an initial load of 1.5 g on the rings, and change nutrient every 20 minutes, then balance for 2 hours and start test after baseline readings are stabilized.\nAfter the tension is stabilized, wash the specimen three times and incubate with Ca-free K—H solution for 40 minutes; depolarize with Ca-free hyperkalemia solution for 20 minutes, and then add CaCl2 (10^−6-10^−2 mol/L) to the tube until a maximum response is achieved, and then record the curve. Then wash with K—H solution repeatedly, and replace with fresh K—H solution every 20 minutes; after balancing for 60 minutes and the baseline values are stabilized, wash the specimen again three times, and incubate with Ca-free K—H solution for 40 minutes; depolarize with Ca-free hyperkalemia solution for 20 minutes, and then add compound II-36 (3×10^−6 mol/L) to the tube, and incubate for 20 minutes; then add CaCl2 (10^−6-10^−2 mol/L) until a maximum response is achieved, and then record the curve. Mark CaCl2 contraction as ordinate using maximum response as 100% base. […] PA2 value of compound II-36 is 5.61±0.04 against CaCl2 contraction effect on rabbit aorta.\nAfter the tension is stabilized, wash the specimen three times and incubate with Ca-free K—H solution for 40 minutes; depolarize with Ca-free hyperkalemia solution for 20 minutes, and then add CaCl2 (10^−6-10^−2 mol/L) to the tube until a maximum response is achieved, and then record the curve. […]"}, "[3]": {"system": "5-HT2A receptors", "test": "Antagonism of 5-HT cumulative contraction of rabbit aorta, pA2", "from_the_text": "as §1\nAfter the tension is stabilized, record a certain length of the curve, and add 5-HT (10^−7-3×10^−4 mol/L) to the tube until a maximum response is achieved, and then record the curve. Then wash the specimen with K—H solution repeatedly, balance for 1.5 h, add compound II-36 (3×10^−6 mol/L), and 20 minutes later, add 5-HT following a same procedure. Mark 5-HT contraction as ordinate using maximum response as 100% base. […]"}, "[4]": {"system": "Kunming mice", "test": "Bone marrow micronucleus test", "settings": "mouse, in vivo", "method": "After four days of continuous administration, perform bone marrow micronucleus test on the 5th day.\nPositive contro, Cyclophosphamide 60 mg/kg/day; negative control, saline solution 0.1 ml/10 g/day. After four days of continuous administration, perform bone marrow micronucleus test on the 5th day.\nThe mice were sacrificed by cervical dislocation, and quickly stripped out of the femur and sternum;\nblood and muscles were removed, epiphysis was cleaned; then sternum bone marrow was transfer with a hemostat squeeze onto clean slides with drops of calf serum or wash the femoral the marrow with fetal calf serum directly onto clean slides; after mixing, adjust slides well; then put the adjusted and aired slide into a staining jar filled with methanol, and allow to fix for 15 minutes; and then take it out and place in air until dry out; then, use freshly prepared Giemsa application solution (one sample of Giemsa stock solution and nine samples of phosphate buffer pH 6.8), stained for 10 minutes to wash away slide dye with small stream of water, and then observe under a microscope after it is dried."}, "[5]": {"system": "SD rats", "test": "Effect on blood pressure of urethane-anesthetized SD rats", "assay_type": "in vivo", "settings": "4.0 mg/kg orally", "method": "Four SD rats were anesthetized with urethane ([…]); after vital signs were stable, measure blood pressure through carotid artery cannulation. After blood pressure is stabilized, compound II-36 was administered orally (4.0 mg/kg, body weight), and blood pressure changes with time were recorded; study results are shown in Table 4, 5 and 6."}, "[6]": {"settings": "relaxation of rabbit aortic rings contracted by hyperkalemia solution (K+ 60 mmol/L)"}, "[7]": {"settings": "time after administration 90, n = 4"}}}
{"smiles": "FC(F)(F)c1cccc(N2CCN(CCCCn3nnc4ccccc43)CC2)c1", "note": "[Compound II-65, 1-(4-(4-(3-trifluoromethylphenyl)piperazin-1-yl)butyl)-1H-benzotriazole]", "values": [{"measurement": "relaxant effect against hyperkalemia solution contraction (in words)", "setting": "[1]", "value": "relatively significant relaxant effect"}, {"measurement": "−logEC50", "setting": "[1]; [6]", "value": "5.55 ± 0.03"}, {"measurement": "PA2 value against CaCl2 contraction", "setting": "[2]", "value": "6.56±0.032"}, {"measurement": "PA2 value against 5-HT contraction", "setting": "[3]", "value": "6.726±0.089"}]}
{"smiles": "FC(F)(F)c1cccc(N2CCN(CCCCn3cnc4ccccc43)CC2)c1", "note": "[Compound II-36, 1-(4-(4-(3-trifluoromethylphenyl)piperazin-1-yl)butyl)-1H-benzimidazole]", "values": [{"measurement": "EC50", "setting": "[1]; [6]", "value": 4.57, "unit": "µM"}, {"measurement": "relaxant effect against hyperkalemia solution contraction (in words)", "setting": "[1]", "value": "significant relaxant effect"}, {"measurement": "PA2 value against CaCl2 contraction", "setting": "[2]", "value": "5.61±0.04"}, {"measurement": "polychromatic erythrocytes with micronucleus", "setting": "[4]; both, Kunming, 4 days", "value": "2.0±0.333 ‰"}, {"measurement": "bone marrow micronucleus test result", "setting": "[4]", "value": "negative"}, {"measurement": "hypotensive effect (in words)", "setting": "[5]", "value": "significant hypotensive effect"}, {"measurement": "time until blood pressure recovered to the level before administration", "setting": "[5]", "value": 3.5, "unit": "h"}, {"measurement": "mean arterial pressure (MAP)", "setting": "[5]; time after administration 0, n = 4", "value": 91.50, "unit": "mmHg"}, {"measurement": "mean arterial pressure (MAP)", "setting": "[5]; time after administration 15, n = 4", "value": 73.40, "unit": "mmHg"}, {"measurement": "mean arterial pressure (MAP)", "setting": "[5]; time after administration 30, n = 4", "value": 74.52, "unit": "mmHg"}, {"measurement": "mean arterial pressure (MAP)", "setting": "[5]; time after administration 60, n = 4", "value": 72.77, "unit": "mmHg"}, {"measurement": "Systolic blood pressure (SBP)", "setting": "[5]; [7]", "value": 98.71, "unit": "mmHg"}, {"measurement": "mean arterial pressure (MAP)", "setting": "[5]; [7]", "value": 68.81, "unit": "mmHg"}, {"measurement": "mean arterial pressure (MAP)", "setting": "[5]; time after administration 120, n = 4", "value": 83.12, "unit": "mmHg"}, {"measurement": "mean arterial pressure (MAP)", "setting": "[5]; time after administration 150, n = 4", "value": 84.47, "unit": "mmHg"}, {"measurement": "mean arterial pressure (MAP)", "setting": "[5]; time after administration 180, n = 4", "value": 84.83, "unit": "mmHg"}, {"measurement": "mean arterial pressure (MAP)", "setting": "[5]; time after administration 210, n = 4", "value": 88.54, "unit": "mmHg"}]}
{"smiles": "c1ccc2c(c1)nnn2CCCCN1CCN(c2nsc3ccccc23)CC1", "note": "[Compound II-68, 3-(4-(4-(1H-benzotriazol-1-yl)butyl)piperazin-1-yl)benzisothiazole]", "values": [{"measurement": "EC50", "setting": "[1]; [6]", "value": 17, "unit": "µM"}, {"measurement": "PA2 value against CaCl2 contraction", "setting": "[2]", "value": "5.36±0.26"}, {"measurement": "PA2 value against 5-HT contraction", "setting": "[3]", "value": "8.86±0.14"}]}
